Experimental data published in US20060018940A1, “Stabilized antimicrobial composition” (E. I. DU PONT DE NEMOURS AND COMPANY, priority 2004, published 2006).
Several values for one entry are separate records, joined by “and”; a condition that tells them apart may be missing. Identical values can stand only once. Entries after “also recorded” stand apart in the source; their conditions may differ. Like-named read-outs stand apart in the source and are kept apart here.

Tests used:
Assay type in all cases: cell-based
[1] = test system: Staphylococcus aureus ATCC 6538; assay: Bacterial efficacy, suspension test (modified AOAC 965.13), plate count on TSA
[2] = test system: Pseudomonas aeruginosa ATCC 15442; assay: as above
[3] = test system: Salmonella choleraesuis ATCC 10708
[4] = test system: Aspergillus fumigatus ATCC 1098; assay: Fungicidal activity (modified AOAC Method 955.17), surviving spores; details: for reduction of the fungal bioburden (words): within 15 minutes of treatment, amounts equivalent to those in the tablet solution
Method: This assay had several modifications from the published AOAC Fungicidal Activity of Disinfectants Protocol, Method 955.17. Aspergillus fumigatus ATCC 1098 was grown on Malt Extract Agar (available from Becton Dickinson, Billerica, Mass.) plates, and spores were harvested. Spores were stored in filter-sterilized Millipore water at −20° C. The spore preparation used for this experiment is detailed below. A freezer stock of A. fumigatus was defrosted and diluted to obtain an inoculum suspension for this experiment. The inoculum preparation was estimated to be approximately 5×10^6 conidia/mL. The following test solutions were prepared using filter sterilized Millipore water in steam-sterilized 4L bottles:
Water Control: (filter-sterilized water only), pH 6.28.
OXONE Control: 3.78 grams OXONE in 1 gallon (3.8L) sterile water, buffered to pH 4.43 using 0.98 g sodium bicarbonate and +5.25 g 10% H2SO4).
Chlorite Control: 0.26 grams of sodium chlorite in 1 gallon sterile water buffered to pH 4.55 (1.8 g 10% H2SO4).
Buffer Control: sodium bicarbonate, pH adjusted to 4.4.
Chlorine Dioxide: anthium dioxide (stabilized sodium chlorite available from IDI, North Kingston, R.I.) was acidified with HCl.
CLOROX control: 4.17% CLOROX bleach available from Clorox Company, Oakland, Calif. (v/v) in Millipore water by mixing 4.17 mL of Clorox bleach and water up to 100 mL total volume.
Tablet test Solution (Example 21: 2 tablets of Example 6 were dissolved in one gallon (3.8 L) of deionized water. The total tablet weight was 5.13 grams. The pH of the resulting solution was 5.2.
Reaction tubes: 5 mL of each test solution was aliquoted into 25×150 mm test culture tubes, capped and labeled according to Table 10. 9 mL of D/E (Dey/Engley) Neutralizing Broth (available from Becton Dickinson, Billerica, Mass.) was added to each of 28 test tubes and the tubes were capped. Butterfield buffer blanks were arranged for dilution of neutralized samples, and Malt Extract Agar plates were numbered for spore enumerations of the diluted, neutralized samples. With a graduated pipette, 0.5 mL of spore inoculum (approx. 10^6 condia/mL) was added to the first tube of test solution and gently shaken. After 5 and 15 minute exposures to the respective test solutions, samples were gently shaken and 1 mL samples were removed from each reaction mixture (spore-test solution) using an Eppendorf pipette and placed in 9 mL D/E (Dey/Engley) Neutralizing Broth. The inoculum was further diluted to approximately 10^4 condia/mL. Two more reaction tubes (water and OXONE-chlorite) and four Dey/Engley neutralization tubes were prepared to evaluate the efficacy of the tablet solution versus a final inoculum density of 10^3 condia/mL in the reaction tube. Samples were reacted for 15 minutes only. Dilutions of neutralized samples were prepared. Two 100 μL aliquots of all samples in D/E (Dey/Engley) Neutralizing Broth were plated on Malt Extract Agar and incubated at 25 °C until the appearance of colonies. Plates were counted after colonies appeared, roughly 4 days after incubation. Several dilutions of the inoculum spore suspensions were also plated on Malt Extract Agar to obtain an accurate count of viable spores used as inoculum. The samples were incubated at 25° C. and counted after the appearance of colonies, after about 4 days of incubation.
Buffer control data was taken after 15 minutes. CLOROX control data was taken after 5 minutes of treatment.

[5] = 30 sec exposure, 1,008 ppm Oxone, 55.5 ppm Chlorite, 23.2 ppm ClO2
[6] = 30 sec exposure, Example 20 = 1,008 ppm Oxone + 55.5 ppm Chlorite, controls 1,008 ppm Oxone, 55.5 ppm Chlorite, 23.2 ppm ClO2, low level of detection 1.0E+01
[7] = 10 min exposure, 1,008 ppm Oxone, 55.5 ppm Chlorite, 23.2 ppm ClO2
[8] = 10 min exposure, 1,008 ppm Oxone, 55.5 ppm Chlorite, 23.2 ppm ClO2, low level of detection 1.0E+01
[9] = 30 sec exposure, 1,008 ppm Oxone, 55.5 ppm Chlorite, 23.2 ppm ClO2, low level of detection 1.0E+01
[10] = 5 min, 1 × 10^6 conidia/mL inoculum in reaction mix, 2 replicates average, 2 Tabs 3.8 L, OXONE 3.78 g/gallon, chlorite 0.26 g/gallon, ClO2 ~23 ppm, 4.17% CLOROX
[11] = 15 min, 1 × 10^6 conidia/mL inoculum in reaction mix, 2 replicates average, 2 Tabs 3.8 L, OXONE 3.78 g/gallon, chlorite 0.26 g/gallon, ClO2 ~23 ppm

## sodium chlorite
[1]; [5]
  Δt (log difference test and control densities): 0.0 log
[1]; [6]
  CFU/mL: 1.23E+06 CFU/mL
[1]; [7]
  Δt (log difference test and control densities): 0.1 log
[1]; [8]
  CFU/mL: 1.20E+06 CFU/mL
[2]; [5]
  Δt (log difference test and control densities): −0.1 log
[2]; [9]
  CFU/mL: 1.17E+06 CFU/mL
[2]; [7]
  Δt (log difference test and control densities): 0.0 log
[2]; [8]
  CFU/mL: 1.21E+06 CFU/mL
[3]; [5]
  Δt (log difference test and control densities): −0.3 log
[3]; [9]
  CFU/mL: 3.09E+06 CFU/mL
[3]; [7]
  Δt (log difference test and control densities): 0.2 log
[3]; [8]
  CFU/mL: 1.27E+06 CFU/mL
[4]; [10]
  Surviving bioburden counts (germinating spores - conidia/mL): 4.25E+05 conidia/mL
[4]; [11]
  Surviving bioburden counts (germinating spores - conidia/mL): 6.25E+05 conidia/mL
[4]; listed as chlorite
  reduction of the fungal bioburden (words): not able to reduce the bioburden
[4]; listed as sodium chlorite
  reduction of the fungal bioburden (words): ineffective in reducing the fungal bioburden

## triple salt of potassium monopersulfate, potassium hydrogen sulfate and potassium sulfate [Oxone]
[1]; [5]
  Δt (log difference test and control densities): 0.0 log
[1]; [6]
  CFU/mL: 1.52E+06 CFU/mL
[1]; [7]
  Δt (log difference test and control densities): 0.4 log
[1]; [8]
  CFU/mL: 6.15E+05 CFU/mL
[2]; [5]
  Δt (log difference test and control densities): 0.0 log
[2]; [9]
  CFU/mL: 9.50E+05 CFU/mL
[2]; [7]
  Δt (log difference test and control densities): 5.1 log
[2]; [8]
  CFU/mL: 1.00E+01 CFU/mL
[4]; [10]
  Surviving bioburden counts (germinating spores - conidia/mL): 3.45E+05 conidia/mL
[4]; [11]
  Surviving bioburden counts (germinating spores - conidia/mL): 5.70E+05 conidia/mL
[4]
  reduction of the fungal bioburden (words): not able to reduce the bioburden; also recorded: ineffective in reducing the fungal bioburden

## [O][Cl+][O-] [ClO2, chlorine dioxide]
[1]
  CFU/mL: 1.00E+01 CFU/mL
  Δt (log difference test and control densities): 5.1 log and 5.2 log
[2]
  CFU/mL: 1.00E+01 CFU/mL
  Δt (log difference test and control densities): 5 log and 5.0 log and 5.1 log
[3]
  CFU/mL: 1.00E+01 CFU/mL
  Δt (log difference test and control densities): 5.1 log and 5.3 log
[4]
  Surviving bioburden counts (germinating spores - conidia/mL): 0.00E+00 conidia/mL
  log A. fumigatus spores killed: 5 log
